Laboratory results as given in patent US6713280B1, “Enhancement of peptide cellular uptake” (Thomas Jefferson University, priority 1999, dated 2004).
Residues, ends and D or L forms follow the SMILES beside them. *: point of attachment. Decanoyl = CCCCCCCCCC(=O)*

What was measured:
Bcl-2 protein = Bcl-2 protein (Homo sapiens, UniProt P10415); test: Fluorescence polarization competition binding against Flu-SEQ ID NO:30 (BH3 peptides); conditions: FIG. 3; for relative competition to Flu-SEQ ID NO:30 binding: comparison among BH3 peptides; for inhibition of Bcl-2 binding of Flu-SEQ ID NO:30: competition curve
[1] = system: Bcl-2-transfected HL-60 line; conditions: 50 μM (same concentration); cited from earlier work
[2] = system: HL-60 cell line (parent line); conditions: 50 μM, parent HL-60 line; cited from earlier work
GST-Bcl-2 protein = GST-Bcl-2 protein (Homo sapiens, UniProt P10415); test: Fluorescence polarization competition binding assay of decyl-SEQ ID NO:56 to GST-Bcl-2
Procedure: The binding equation proposed by Weinhold et al., J. Am. Chem. Soc. 114:9270-9275, 1992, was used to derive the dissociation constant KD of an inhibitor from petition inhibition curve, [formula]
The Ec50 for the Bcl-2 binding of decyl-SEQ ID NO:56 was 0.13 μM, indicating strong binding.
The binding of the peptide conjugate decyl-SEQ ID NO:56 to the Bcl-2 protein was assayed by the following competition assay. […] The following micromolar concentrations of decyl-K1285 were then incubated with the mixture for 30 minutes at 37° C. (0.005, 0.01, 0.02, 0.04 0.08 0.16 and 0.32).

[3] = system: HL-60 cells transfected with Bcl-2 to overexpress Bcl-2; test: DNA fragmentation apoptosis assay; type: cell-based, human; conditions: 50 μM, 2 hours, Bcl-2-transfected HL-60 cells, FIG. 6

Chain of Bcl-2 protein (P10415 whole entry): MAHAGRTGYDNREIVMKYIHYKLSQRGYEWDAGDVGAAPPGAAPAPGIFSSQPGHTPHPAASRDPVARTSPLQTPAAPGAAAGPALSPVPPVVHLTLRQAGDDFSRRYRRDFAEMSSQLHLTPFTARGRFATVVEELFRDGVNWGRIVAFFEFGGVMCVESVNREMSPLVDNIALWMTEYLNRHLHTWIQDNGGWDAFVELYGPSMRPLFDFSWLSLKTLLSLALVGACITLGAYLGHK
Chain of GST-Bcl-2 protein (P10415 1-205 limits assumed): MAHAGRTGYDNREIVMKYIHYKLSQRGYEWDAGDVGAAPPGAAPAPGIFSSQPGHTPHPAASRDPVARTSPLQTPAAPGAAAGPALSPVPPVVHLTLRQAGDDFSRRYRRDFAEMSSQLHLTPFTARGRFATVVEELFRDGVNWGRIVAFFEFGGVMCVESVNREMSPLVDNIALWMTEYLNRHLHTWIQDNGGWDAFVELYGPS

Molecule: NLWAAQRYGRELRRMSDEFEGSFKGL [SEQ ID NO:1]
- relative competition to Flu-SEQ ID NO:30 binding (Bcl-2 protein): strongest competition
- inhibition of Bcl-2 binding of Flu-SEQ ID NO:30 (Bcl-2 protein): clear dose-dependent inhibition

Molecule: COc1cc([C@@H]2c3cc4c(cc3[C@@H](O[C@@H]3O[C@@H]5CO[C@@H](C)O[C@H]5[C@H](O)[C@H]3O)[C@H]3COC(=O)[C@H]23)OCO4)cc(OC)c1O [etoposide]
- sensitivity of cells to the drug [1]: resistant
- sensitivity of cells to the drug [2]: sensitive

Molecule: CCCCCCCCCC(=O)N[C@@H](CCCCN)C(=O)N[C@@H](CC(N)=O)C(=O)N[C@@H](CC(C)C)C(=O)N[C@@H](Cc1c[nH]c2ccccc12)C(=O)N[C@@H](C)C(=O)N[C@@H](C)C(=O)N[C@@H](CCC(N)=O)C(=O)N[C@@H](CCCNC(=N)N)C(=O)N[C@@H](Cc1ccc(O)cc1)C(=O)NCC(=O)N[C@@H](CCCNC(=N)N)C(=O)N[C@@H](CCC(=O)O)C(=O)N[C@@H](CC(C)C)C(=O)N[C@@H](CCCNC(=N)N)C(=O)N[C@@H](CCCNC(=N)N)C(=O)N[C@@H](CCSC)C(=O)N[C@@H](CO)C(=O)N[C@@H](CC(=O)O)C(=O)N[C@@H](CCC(=O)O)C(=O)N[C@@H](Cc1ccccc1)C(=O)N[C@@H](CCC(=O)O)C(=O)NCC(=O)N[C@@H](CO)C(=O)N[C@@H](Cc1ccccc1)C(=O)N[C@@H](CCCCN)C(=O)NCC(=O)N[C@@H](CC(C)C)C(=O)O [decyl-SEQ ID NO:56] (Decanoyl-KNLWAAQRYGRELRRMSDEFEGSFKGL-OH; C-terminus assumed)
- EC50 (GST-Bcl-2 protein): 130 nM
- DNA fragmentation (marker of apoptosis) [3]: DNA fragmentation was observed

Molecule: CCCCCCCCCC(=O)O [decanoic acid, reference compound]
- DNA fragmentation (marker of apoptosis) [3]: observed in the decyl-SEQ ID NO:56-treated cells only

Molecule: KKLSECLKRIGDELDS [SEQ ID NO:32]
- relative competition to Flu-SEQ ID NO:30 binding (Bcl-2 protein): weaker activity
- inhibition of Bcl-2 binding of Flu-SEQ ID NO:30 (Bcl-2 protein): clear dose-dependent inhibition

Molecule: GQVGRQMIIGDDINR (GQVGRQAAIIGDDINR) [SEQ ID NO:58, reference compound]
- inhibition of Bcl-2 binding of Flu-SEQ ID NO:30 (Bcl-2 protein): no significant effect

Molecule: KNLWAAQRYGRELRRMSDEFEGSFKGL [SEQ ID NO:56]
- DNA fragmentation (marker of apoptosis) [3]: observed in the decyl-SEQ ID NO:56-treated cells only
